Among the data in PubChem BioAssay AID1053123 (Broad Institute, 2014) are AC50 values, retold here.

In general, AC50 refers to the midpoint of the concentration-response curve, whichever way the signal moves.

For the test, the system named is CHO ER-LucT cells, luciferase glycosylation gel shift, 24 h. Put plainly: inhibitors of N-linked glycosylation of luciferase, dose response, CHO ER-LucT cells, western blot, cherry-picked (AID 1053123). (In general: A western blot detects proteins with antibodies after separation by electrophoresis.)

With `Cc1cnc(NC(=O)c2cc(S(=O)(=O)N(C)C)ccc2N2CCCC2)s1`, the AC50 is 7640 nM.

For the compound `Cc1cnc(NC(=O)c2cc(S(=O)(=O)N3CCCC3)ccc2N2CCCC2)s1`, the half-maximal activity concentration (AC50) was 2520 nM.

Take `Cc1cnc(NC(=O)c2cc(S(=O)(=O)N(C)C)ccc2N2CCC2)s1`: the concentration at half-maximal activity (AC50) was 10500 nM.

As for `Cc1cnc(NC(=O)c2cc(S(=O)(=O)N3CCOCC3)ccc2N2CCCC2)s1`, the half-maximal activity concentration (AC50) is 950 nM.

For the compound `Cc1csc(NC(=O)c2cc(S(=O)(=O)N(C)C)ccc2N2CCCC2)n1`, the concentration at half-maximal activity (AC50) was 395 nM.
